# Data published in paper PMC7409020, “Tumor-Targeting Peptides: The Functional Screen of Glioblastoma Homing Peptides to the Target Protein FABP3 (MDGI)” (Cancers, 2020).
# Square brackets hold non-standard residues; d marks the D form. Peptide text beside a SMILES is read from it.
# Target: T1, recombinant FABP3 (Homo sapiens, UniProt P05413)
# T1 construct: made in house; host or cells: Escherichia coli BL21 (DE3)
# Assay: Microscale thermophoresis (MST) binding to NT-650-NHS-labeled FABP3
# Conditions: 20 nM labeled FABP3; peptide 500 µM to 0.0153 µM, two-fold dilutions; PBS-tween 20 pH 7.4; 25 °C; 40% MST power; 1:1 fit; mean ± SD of three independent experiments
# Description: For the binding affinity measurements between the recombinant FABP3 and the A-CooP, its variants, and the control peptide, we used the microscale thermophoresis. […] For these analyses, FABP3 was labeled with an NT-650-NHS fluorescence. Two-fold serially diluted peptides ranging from 500 µM to 0.0153 µM were titrated against a constant FABP3 concentration (20 nM). The binding events were generated following changes in fluorescence (ΔFnorm) against peptide concentrations. Subsequently, the equilibrium dissociation constant (KD) was calculated using a 1:1 fit model from the law of mass action. The MST binding affinities (KD values) are represented in a bar graph (Figure 4B). The smallest KD value equals the best affinity, and the highest value is the lowest affinity. […] The changes in fluorescence (ΔFnorm) were normalized to the bound fraction (Figure 4C). The data points towards 1 were considered bound fractions, while data points less than 1 represented the unbound fractions.
# FABP3 was labeled with a second-generation red amine-reactive NT-650-NHS fluorescent dye using the Nanotemper labeling kit (MO-L011; Nanotemper, https://nanotempertech.com/). The protein/dye concentration ratio and volume ratio were 1:3 and 1:1, respectively, in accordance with the manufacturer’s instructions. The actual concentration and degree of labeling (DOL) were determined using the extinction coefficient Ɛ280 = 18450 M^−1 cm^−1 for FABP3 and Ɛ650 =195000 M^−1 cm^−1 for the NT650 dye. Using the correction factor of 0.04 at 280 nm, the DOL for all labeling reactions was calculated according to manufacturer’s instructions. Binding experiments were carried out in a PBS-tween 20 buffer (10 mM Na2HPO4, 140 mM NaCl, 2.7 mM KCl, 0.05% tween 20, pH 7.4). The binding assay was performed with a fixed concentration (20 nM) of the fluorescently labeled FABP3 (target) and two-fold serially diluted decreasing concentrations (500 µM to 0.0153 µM) of the unlabeled A-CooP variants (ligand). The reaction mixture of 16 serial diluents of A-CooP or its analogues and FABP3 were filled into the capillary tubes (Nanotemper, MO-K022) and loaded in the Monolith NT 115 instrument accordingly. All experiments were carried out at 25 °C, 40% MST power (medium), and 60% LED power. Binding assay and measurements were performed in triplicates for each experimental setup.
# T1 sequence (P05413 whole entry): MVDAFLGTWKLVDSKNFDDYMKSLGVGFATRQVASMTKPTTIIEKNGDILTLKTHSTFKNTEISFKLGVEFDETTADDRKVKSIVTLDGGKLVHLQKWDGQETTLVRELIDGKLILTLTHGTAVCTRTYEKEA
row,SMILES,Kd
1,CC(C)C[C@H](NC(=O)CNC(=O)[C@H](CO)NC(=O)[C@H](CC(C)C)NC(=O)CNC(=O)[C@H](CS)NC(=O)[C@H](C)N)C(=O)NCC(=O)N[C@H](C(=O)N[C@@H](C)C(=O)N[C@@H](CCCCN)C(N)=O)C(C)C [A-CooP-K] (H-ACGLSGLGVAK-NH2),70 ± 10 nM
2,CC(C)C[C@H](NC(=O)CNC(=O)[C@H](CO)NC(=O)[C@H](CC(C)C)NC(=O)CNC(=O)[C@H](CS)NC(=O)[C@H](C)N)C(=O)NCC(=O)N[C@H](C(=O)N[C@@H](C)C(N)=O)C(C)C [A-CooP] (H-ACGLSGLGVA-NH2),2180 ± 1150 nM
3,CC(C)C[C@H](NC(=O)CNC(=O)[C@H](CO)NC(=O)[C@H](CC(C)C)NC(=O)[C@H](C)NC(=O)[C@H](CS)NC(=O)[C@H](C)N)C(=O)NCC(=O)N[C@H](C(=O)N[C@@H](C)C(N)=O)C(C)C [A-[Ala^2]CooP] (H-ACALSGLGVA-NH2),90 ± 70 nM
4,CC(C)C[C@H](NC(=O)CNC(=O)[C@H](CO)NC(=O)[C@H](C)NC(=O)CNC(=O)[C@H](CS)NC(=O)[C@H](C)N)C(=O)NCC(=O)N[C@H](C(=O)N[C@@H](C)C(N)=O)C(C)C [A-[Ala^3]CooP] (H-ACGASGLGVA-NH2),250 ± 140 nM
5,CC(C)C[C@H](NC(=O)CNC(=O)[C@H](CS)NC(=O)[C@H](C)N)C(=O)N[C@@H](CO)C(=O)NCC(=O)N[C@@H](C)C(=O)NCC(=O)N[C@H](C(=O)N[C@@H](C)C(N)=O)C(C)C [A-[Ala^6]CooP] (H-ACGLSGAGVA-NH2),190 ± 30 nM
6,CC(C)C[C@H](NC(=O)CNC(=O)[C@H](CO)NC(=O)[C@H](CC(C)C)NC(=O)CNC(=O)[C@H](CS)NC(=O)[C@H](C)N)C(=O)N[C@@H](C)C(=O)N[C@H](C(=O)N[C@@H](C)C(N)=O)C(C)C [A-[Ala^7]CooP] (H-ACGLSGLAVA-NH2),133000 ± 75000 nM
7,CC(C)C[C@H](NC(=O)CNC(=O)[C@H](CO)NC(=O)[C@H](CC(C)C)NC(=O)CNC(=O)[C@H](CS)NC(=O)[C@H](C)N)C(=O)NCC(=O)N[C@@H](C)C(=O)N[C@@H](C)C(N)=O [A-[Ala^8]CooP] (H-ACGLSGLGAA-NH2),120 ± 50 nM
8,CC(C)C[C@H](NC(=O)CNC(=O)[C@H](CO)NC(=O)[C@H](CC(C)C)NC(=O)CNC(=O)[C@H](CS)NC(=O)[C@H](C)NC(=O)[C@@H](N)CCCCN)C(=O)NCC(=O)N[C@H](C(=O)N[C@@H](C)C(N)=O)C(C)C [KA-CooP] (H-KACGLSGLGVA-NH2),630 ± 130 nM
9,CC(C)C[C@@H](NC(=O)CNC(=O)[C@H](NC(=O)[C@@H](C)N)C(C)C)C(=O)NCC(=O)N[C@H](CO)C(=O)N[C@H](CC(C)C)C(=O)NCC(=O)N[C@H](CS)C(=O)N[C@H](C)C(N)=O [RI-A-CooP] (H-[dA][dV]G[dL]G[dS][dL]G[dC][dA]-NH2),24000 ± 13000 nM
